Data: US11136325B2, “Pyrrolopyrimidine and pyrrolopyridine derivatives” (GALAPAGOS NV, priority 2017, dated 2021)

System: ASK1/2 (phospho-MKK3 in H2O2-stimulated PBMCs)
Experiment: ASK1/2 cellular assay: phospho-MKK3 in H2O2-stimulated PBMCs, western blot
Format: cell-based
Conditions: PBMC, 0.5 h, 3 mM H2O2, 30 min, read-out: Inhibition (pIC50) (converted)
Protocol: ASK1/2 activity in vitro was assayed by determining the quantity of phospho-MKK3 protein in H2O2-stimulated PBMCs, using western blot method.
• Lymphoprep (Axis-Shield, Cat. No. 1114545) • Ammonium chloride lysate buffer pH 7.4 (10× concentrated): • NH4Cl—final conc. 1.5 M (Kemika, Cat. No. 0137407) • NaHCO3— final conc. 100 mM (Kemika, Cat. No. 1411007) • Na2EDTA—final conc. 10 mM (Sigma Aldrich; Cat. No. E-4884) • RPMI 1640 (Lonza Cat. No. BE12-115F/U1) • FBS (Sigma Cat. No. F7524, heat inactivated 30′/56° C.) • Dimethyl sulfoxide (DMSO) (Sigma, Cat. No. D2650) • Cell lysis buffer (pH 7.4): PBS+1% Triton X-100 (Sigma Aldrich; Cat. No. X100)—10 ml • Phospho-Stop—1 tablet (Sigma, Cat. No. 4693124001) • Protease Inhibitor—1 tablet (Sigma, Cat. No. 4906837001) • Hydrogen peroxide solution 3% w/w (Sigma Aldrich, Cat. No. H-6520) • PBS (Sigma Aldrich, Cat. No. P4417-100TAB) • Microplate, 96 well, pp, v-bottom, clear (Greiner bio-one; Cat. No. 651201) • Tissue culture plate, 6 well, flat bottom with low evaporation lid (Falcon, Cat. No. 353224) • 50 mL falcon tube (TPP, Cat. No. 91050) • Pierce BCA Protein Assay Kit (Thermo Scientific, Cat. No. 23225) • Immulon® Microtiter™ 96-Well Plate 1B (Thermo Scientific, Cat. No. 3355) • Wes 12-230 kDa Master Kit (Protein Simple, Cat. No. PS-MK14) • MKK3 (D4C3) Rabbit mAb (Cell Signaling, Cat. No. 8535) • Phospho-MKK3 (Ser189)/MKK6 (Ser207) (D8E9) Rabbit mAb (Cell Signaling, Cat. No. 12280)
The assay was configured to run using the following conditions: Tested compounds concentration range: 1-0.0014 μM (7 three-fold serial dilutions); H2O2 concentration: 3 mM
To isolate the PBMCs from buffy coat, the buffy coat was diluted 1:1 in PBS, then the dilute buffy-coat (25 mL) was carefully pipetted on top of 20 mL of Lymphoprep in a falcon tube. The tubes were then spun for 35 min at 400×g. The upper plasma layer is then carefully removed leaving the layer containing the MNCs. The layer containing the MNCs is then transferred to a new tube, PBS is added up to a total volume of 50 mL and the tube is then spun for 10 minutes (200×g, 25° C.). The resulting pellet is then resuspended in 2 mL PBS, the washing step was repeated. The final pellets were resuspended in ammonium chloride lysate buffer up to 50 mL, mixed gently and centrifuged for 10 minutes (200×g, 25° C.), resuspended in 2-3 mL of cell medium and diluted up to 50 mL in cell medium. The cell density of a 1/20 dilution in cell medium was determined using an automated cell counter.
10×10^6 PBMCs were seeded per well in 1 mL of RPMI 1640 cell medium supplemented with 10% FBS in 6-well plates. Seven sets of three-fold serial dilutions of compounds in DMSO starting from 1 mM in 96-well v-bottom plate were prepared. The DMSO compound solutions were diluted 100× in the cell medium. 200 μL of 100× diluted compound solution were added per well, control wells contained 200 μL of 1% DMSO prepared in cell medium. 7.5 mM H2O2 in cell medium was prepared and 800 μL was added to each well, except the negative control well to which 800 μL of cell medium was added. The cells were incubated for 30 min at 37° C., 5% CO2, 95% humidity. The cells were transferred to 2 mL Eppendorf tubes and centrifuged for 10 minutes at 300×g at 4° C., they were then washed with 1 mL PBS, the cell pellet was resuspended in 100 μL of lysis buffer and incubated on ice for 30 minutes. After which time the cell lysates were centrifuged for 5 minutes at 10000×g at 4° C. and the supernatants were then stored at −20° C.
Samples were diluted 5× in cell lysis buffer and total protein concentration was determined in 96-well Immulon 1B plate using BCA Protein Assay Kit following manufacturer's instructions.
Western blot assay was performed using Protein Simple Wes Master Kit and device, following manufacturer's instructions. 0.5 mg/mL of total proteins was loaded per sample; phospho-MKK3 and MKK3 antibodies were diluted 300×. […]

Row | SMILES | IC50
1 | Nc1cc(C(=O)NC2CCN(c3ncnc4[nH]cc(Cl)c34)CC2)c(F)cn1 [Compound 5, 2-amino-N-[1-(5-chloro-7H-pyrrolo[2,3-d]pyrimidin-4-yl)-4-piperidyl]-5-fluoro-pyridine-4-carboxamide] | 6.31 nM
2 | Cc1c[nH]c2ncnc(N3CCC(NC(=O)c4cc(N)ncc4F)CC3)c12 [Compound 1, 2-amino-5-fluoro-N-[1-(5-methyl-7H-pyrrolo[2,3-d]pyrimidin-4-yl)-4-piperidyl]pyridine-4-carboxamide] | 8.91 nM
3 | Cc1c[nH]c2ncnc(N3CCC(NC(=O)c4cc(N)ncc4Cl)CC3)c12 [Compound 3, 2-amino-5-chloro-N-[1-(5-methyl-7H-pyrrolo[2,3-d]pyrimidin-4-yl)-4-piperidyl]-pyridine-4-carboxamide] | 39.8 nM
4 | Nc1cc(C(=O)NC2CCN(c3ncnc4[nH]cc(Cl)c34)CC2)ccn1 [Compound 4, 2-amino-N-[1-(5-chloro-7H-pyrrolo[2,3-d]pyrimidin-4-yl)-4-piperidyl]pyridine-4-carboxamide] | 7.94 nM
5 | Cc1c[nH]c2ncc(C#N)c(N3CCC(NC(=O)c4cc(N)ncc4F)CC3)c12 [Compound 6, 2-amino-N-[1-(5-cyano-3-methyl-1H-pyrrolo[2,3-b]pyridin-4-yl)-4-piperidyl]-5-fluoro-pyridine-4-carboxamide] | 12.6 nM
6 | Cc1cnc(N)cc1C(=O)NC1CCN(c2ncnc3[nH]cc(C)c23)CC1 [Compound 2, 2-amino-5-methyl-N-[1-(5-methyl-7H-pyrrolo[2,3-d]pyrimidin-4-yl)-4-piperidyl]pyridine-4-carboxamide] | 3.16 nM
7 | Nc1cc(C(=O)NC2CCN(c3ccnc4[nH]cc(Cl)c34)CC2)c(F)cn1 [Compound 7, 2-amino-N-[1-(3-chloro-1H-pyrrolo[2,3-b]pyridin-4-yl)-4-piperidyl]-5-fluoro-pyridine-4-carboxamide] | 12.6 nM
